# Test results taken from patent publication US4283394A, “Cytotoxic nucleoside-corticosteroid phosphodiesters” (priority 1979, dated 1981).
# Like-named read-outs stand apart in the source and are kept apart here.
# How the values were obtained:
# [1] = system: i.p. implanted L-1210 leukemia; assay: Antitumor activity against i.p. implanted L-1210 leukemia in mice; assay type: in vivo; details: for response vs control in vivo at 25 mg/kg / response vs control in vivo at 50 mg/kg / response vs control in vivo at 100 mg/kg: Mus musculus, L1210, ip; for response vs control in vivo at 50 mg/kg: read-out: Percent T/C (mean survival days treated/control × 100), 50 mg/kg/day × 5 i.p.; for response vs control in vivo at 100 mg/kg: read-out: Percent T/C (mean survival days treated/control × 100), 100 mg/kg/day × 5 i.p.
# Protocol: The ascites cell form of L-1210 leukemia, grown in C3 D2 F1 /J female mice (supplied by Jackson Labs) were employed. The assay was performed according to National Cancer Institute (NCI) protocol 1.100 described by R. I. Gerau et al., Cancer Chemother. Rep. (Part 3) 3: (2): 7, 47 (1972) with a slight modification. Intraperitoneal implantation of 1×10^6 cells in 0.5-ml suspension to the control and the treated groups (each group comprised 8 C3 D2 F1 /J female mice, average wt 20 g) was carried out using donor mice (DBA/2Ha, supplied by Roswell Park Memorial Institute) bearing 3 day tumor growths. Compounds were dissolved in 0.9 percent NaCl and a 0.5 ml dose was administered intraperitoneally once daily. Treatment began 24 h after implantation and continued for 5 consecutive days. Control animals received a 0.5 ml injection of saline. Testing was followed as described in the NCI protocol and evaluated by recording the survival time according to the formula appearing in protocol 11.
# [2] = system: intracerebrally implanted L-1210; assay: Antitumor activity against intracerebrally (i.c.) implanted L-1210 in mice; assay type: in vivo; details: for Survivors on day 35: groups of 8 mice; for Percent T/C: values as of 35th day
# Protocol: Effects of the conjugate on i.c. implanted L-1210 in mice were also studied. A mouse (C3 D2 F1 /J, female, avg. wt. 20 g) was anesthesized with diethyl ether, the right parietal scalp was washed with 70 percent ethanol, a 27 G 1/2 needle with a guard placed on the outside of the barrel 1.5 mm from the top of the bevel, was inserted through the skull and 1×10^5 cells in 0.05 ml suspension were inoculated into the mouse. The conjugate in 0.9 percent NaCl (0.5 ml) was administered intraperitoneally once daily. Treatment began 24 h after implantation and continued for 5 consecutive days. Control animals received a 0.5 ml injection of saline. Testing was followed as described in the NCI protocol and evaluated by recording the survival time according to the formula appearing in protocol 11.
# [3] = system: mouse leukemia L-1210 cells; assay: Antiproliferative activity in vitro, viability of L-1210 cells in culture; assay type: cell-based; details: for IC50: read-out: Concentration (μM) for 50 percent loss of viability at 72 hours (ED50)
# Protocol: The antiproliferative activity of the conjugates, ara-C, ara-CMP and the steroids was determined by measuring their effects against mouse leukemia L-1210 cells in culture. The assay was performed in test tubes without agitation according to the procedure described by Hong et al. in J. Med. Chem. 16: 139 (1973). After 24, 48 and 72 h, viable cell counts were performed on the cultures which had been incubated with compounds in various concentrations and the concentration of each compound required to produce a 50 percent inhibition of growth (ED50) after 72 h was determined by interpolation using the method described by Tritsch et al. in Cancer Biochem. Biophys. 2: 87 (1977).
# [4] = system: i.p. implanted L1210 leukemia; assay: Comparison of conjugates and ara-C plus steroid combinations, i.p. implanted L1210 leukemic mice; assay type: in vivo
# Protocol: Each mouse received 1×10^6 cells intraperitoneally. Doses were administered i.p. once daily to groups of 8 mice (avg. wt. 20 g) for 5 consecutive days beginning 24 hours after tumor implantation. In case of the combination, ara-C and the steroid were given at the same molar concentrations present in the conjugates. Mean survival days were calculated by the equation appearing in the NCI protocol; T/C ratios are reported in percent, i.e (treated/control)×100.
# [5] = read-out: Percent T/C (mean survival days treated/control × 100), 25 mg/kg/day × 5 i.p.
smiles,measurement,setting,value
"Nc1ccn([C@@H]2O[C@H](CO)[C@@H](O)[C@@H]2O)c(=O)n1 [Ara-C, 1-β-D-Arabinofuranosylcytosine, reference compound]","Mean Survival Days, Treated",[1]; 25 mg/kg/day × 5 i.p.,11.00 days
same,"Mean Survival Days, Treated",[1]; 50 mg/kg/day × 5 i.p.,9.63 days
same,Percent T/C (mean survival days treated/control × 100),[1]; 50 mg/kg/day × 5 i.p.,110%
same,response vs control in vivo at 25 mg/kg,[1]; [5],128%
same,response vs control in vivo at 50 mg/kg,[1],110%
same,Mean Survival Days,[2]; 25 mg (102.8 μmol)/kg/day × 5 i.p.,13.75 days
same,Survivors on day 35,[2]; 25 mg/kg/day × 5 i.p.,0
same,Percent T/C,[2]; 25 mg/kg/day × 5 i.p.,152.8%
same,Percent T/C,"[2]; 25 mg/kg/day × 5 i.p., listed as ara-C",153%
same,weight lost by day 14,[2]; ara-C treated mice,about 5 g
same,deaths of treated mice,"[2]; ara-C treated mice, by day 14",all but one of them died
same,IC50,"[3]; Mus musculus, L1210, 72 h",0.1 µM
"Nc1ccn([C@@H]2O[C@H](COP(=O)(O)O)[C@@H](O)[C@@H]2O)c(=O)n1 [Ara-CMP, reference compound]","Mean Survival Days, Treated",[1]; 50 mg/kg/day × 5 i.p.,9.13 days
same,"Mean Survival Days, Treated",[1]; 100 mg/kg/day × 5 i.p.,11.00 days
same,response vs control in vivo at 50 mg/kg,[1],104%
same,response vs control in vivo at 100 mg/kg,[1],122%
same,IC50,"[3]; Mus musculus, L1210, 72 h",0.05 µM
C[C@]12C[C@H](O)[C@H]3[C@@H](CCC4=CC(=O)CC[C@@]43C)[C@@H]1CC[C@@H]2C(=O)COP(=O)(O)OC[C@H]1O[C@@H](n2ccc(N)nc2=O)[C@@H](O)[C@@H]1O [Corticosterone-p-ara-C],Survival Days Mean (Treated),[4]; 77.0 μmole/kg/day × 5,26.50 days
same,Weight change on Day 8 (g/mouse),[4]; 77.0 μmole/kg/day × 5,-0.71 g/mouse
same,response vs control in vivo at 77 µmol/kg,"[4]; Mus musculus, L1210, ip, 77.0 μmole/kg/day × 5, read-out: % T/C",342%
"C[C@]12CCC(=O)C=C1CC[C@@H]1[C@@H]2[C@@H](O)C[C@@]2(C)[C@H]1CC[C@]2(O)C(=O)COP(=O)(O)OC[C@H]1O[C@@H](n2ccc(N)nc2=O)[C@@H](O)[C@@H]1O [Cortisol-p-ara-C (V), 5'-(Cortisol-21-phosphoryl)-1-β-D-arabinofuranosylcytosine]",Survival Days Mean (Treated),[4]; 75.0 μmole/kg/day × 5,24.75 days
same,Weight change on Day 8 (g/mouse),"[4]; 75.0 μmole/kg/day × 5 (each, for combinations)",+0.09 g/mouse
same,response vs control in vivo at 75 µmol/kg,"[4]; Mus musculus, L1210, ip, 75.0 μmole/kg/day × 5, read-out: % T/C",287%
same,"Mean Survival Days, Treated",[1]; 50 mg/kg/day × 5 i.p.,24.75 days
same,"Mean Survival Days, Treated",[1]; 100 mg/kg/day × 5 i.p.,14.25 days
same,response vs control in vivo at 50 mg/kg,[1],287%
same,response vs control in vivo at 100 mg/kg,[1],154%
same,Mean Survival Days,[2]; 50 mg/kg/day × 5 i.p.,20.50 days
same,body weight lost by day 11,[2]; 50 mg/kg/day × 5 i.p.,about 4 g
same,weight gained over original weight (20 g) by day 20,[2]; 50 mg/kg/day × 5 i.p.,about 1 g
same,Survivors on day 35,[2]; 50 mg/kg/day × 5 i.p.,2
same,Percent T/C,[2]; 50 mg/kg/day × 5 i.p.,227.8%
same,Percent T/C,"[2]; 50 mg/kg/day × 5 i.p., listed as V",228%
same,antiproliferative activity compared with ara-CMP and ara-C,[3]; 72 h,less active than both ara-CMP and ara-C
same,IC50,"[3]; Mus musculus, L1210, 72 h",0.25 µM
"C[C@]12CCC(=O)C=C1CC[C@@H]1[C@@H]2C(=O)C[C@@]2(C)[C@H]1CC[C@]2(O)C(=O)COP(=O)(O)OC[C@H]1O[C@@H](n2ccc(N)nc2=O)[C@@H](O)[C@@H]1O [Cortisone-p-ara-C (VI), 5'-(Cortisone-21-phosphoryl)-1-β-D-arabinofuranosylcytosine]",Survival Days Mean (Treated),[4]; 75.1 μmole/kg/day × 5,21.43 days
same,Weight change on Day 8 (g/mouse),[4]; 75.1 μmole/kg/day × 5,-0.07 g/mouse
same,response vs control in vivo at 75.1 µmol/kg,"[4]; Mus musculus, L1210, ip, 75.1 μmole/kg/day × 5, read-out: % T/C",238%
same,"Mean Survival Days, Treated",[1]; 50 mg/kg/day × 5 i.p.,20.14 days
same,response vs control in vivo at 50 mg/kg,[1],224%
same,antiproliferative activity compared with ara-CMP and ara-C,[3]; 72 h,activity comparable to ara-CMP
same,IC50,"[3]; Mus musculus, L1210, 72 h",0.07 µM
C[C@]12CC[C@H]3[C@@H](CCC4=CC(=O)CC[C@@]43C)[C@@H]1CC[C@@H]2C(=O)COP(=O)(O)OC[C@H]1O[C@@H](n2ccc(N)nc2=O)[C@@H](O)[C@@H]1O [DOC-p-ara-C],Survival Days Mean (Treated),[4]; 78.7 μmole/kg/day × 5,21.38 days
same,Weight change on Day 8 (g/mouse),[4]; 78.7 μmole/kg/day × 5,-0.94 g/mouse
same,response vs control in vivo at 78.7 µmol/kg,"[4]; Mus musculus, L1210, ip, 78.7 μmole/kg/day × 5, read-out: % T/C",238%
"C[C@@H]1C[C@H]2[C@@H]3CCC4=CC(=O)C=C[C@]4(C)[C@@]3(F)[C@@H](O)C[C@]2(C)[C@@]1(O)C(=O)COP(=O)(O)OC[C@H]1O[C@@H](n2ccc(N)nc2=O)[C@@H](O)[C@@H]1O [DXM-p-ara-C (III), 5'-(Dexamethasone-21-phosphoryl)-1-β-D-arabinofuranosylcytosine]",Survival Days Mean (Treated),[4]; 36.0 μmole/kg/day × 5,11.50 days
same,Weight change on Day 8 (g/mouse),[4]; 36.0 μmole/kg/day × 5,-1.03 g/mouse
same,Survival Days Mean (Treated),[4]; 71.7 μmole/kg/day × 5,13.50 days
same,Weight change on Day 8 (g/mouse),[4]; 71.7 μmole/kg/day × 5,-1.50 g/mouse
same,response vs control in vivo at 36 µmol/kg,"[4]; Mus musculus, L1210, ip, 36.0 μmole/kg/day × 5, read-out: % T/C",128%
same,response vs control in vivo at 71.7 µmol/kg,"[4]; Mus musculus, L1210, ip, 71.7 μmole/kg/day × 5, read-out: % T/C",150%
same,toxicity,[1]; 50 mg (71.7 μmol)/kg/day,showed some toxicity
same,"Mean Survival Days, Treated",[1]; 50 mg/kg/day × 5 i.p.,13.50 days
same,Percent T/C (mean survival days treated/control × 100),[1]; 50 mg/kg/day × 5 i.p.,150%
same,response vs control in vivo at 50 mg/kg,[1],150%
same,antiproliferative activity compared with ara-CMP and ara-C,[3]; 72 h,activity comparable to ara-CMP
same,IC50,"[3]; Mus musculus, L1210, 72 h",0.08 µM
CC12CCC(=O)C=C1CCC1C3CCC(O)(C(=O)COP(=O)(O)OCC4OC(n5ccc(N)nc5=O)C(O)C4O)C3(C)CC(O)C12F (centres unmarked) [Fludrocortisone-p-ara-C],Survival Days Mean (Treated),[4]; 36.46 μmole/kg/day × 5,14.30 days
same,Weight change on Day 8 (g/mouse),[4]; 36.46 μmole/kg/day × 5,-1.09 g/mouse
same,response vs control in vivo at 36.46 µmol/kg,"[4]; Mus musculus, L1210, ip, 36.46 μmole/kg/day × 5, read-out: % T/C",159%
"C[C@H]1C[C@@H]2[C@H]([C@@H](O)C[C@@]3(C)[C@H]2CC[C@]3(O)C(=O)COP(=O)(O)OC[C@H]2O[C@H](n3ccc(N)nc3=O)[C@@H](O)[C@@H]2O)[C@@]2(C)C=CC(=O)C=C12 [MePred-p-ara-C (IV), 5'-(6α-Methylprednisolone-21-phosphoryl)-1-α-D-arabinofuranosylcytosine]",% T/C,[4]; 74.0 μmole/kg/day × 5,246.8%
same,Survival Days Mean (Treated),[4]; 74.0 μmole/kg/day × 5,19.13 days
same,Survival Days Range,[4]; 74.0 μmole/kg/day × 5,14 to 24 days
same,Weight change on Day 8 (g/mouse),[4]; 74.0 μmole/kg/day × 5,-1.08 g/mouse
same,antiproliferative activity compared with ara-CMP and ara-C,[3]; 72 h,activity comparable to ara-CMP
same,IC50,[3]; 72 h,0.05 µM
"C[C@]12C=CC(=O)C=C1CC[C@@H]1[C@@H]2[C@@H](O)C[C@@]2(C)[C@H]1CC[C@]2(O)C(=O)CO [Prednisolone, 11β,17α,21-trihydroxy-1,4-pregnadiene-3,20-dione, reference compound]",response vs control in vivo at 25 mg/kg,[1]; [5],133%
"C[C@]12C=CC(=O)C=C1CC[C@@H]1[C@@H]2C(=O)C[C@@]2(C)[C@H]1CC[C@]2(O)C(=O)CO [prednisone, 17α,21-dihydroxy-1,4-pregnadiene-3,11,20-trione, reference compound]",response vs control in vivo at 25 mg/kg,"[1]; 25 mg/kg/day × 5 i.p., read-out: Percent T/C (mean survival days treated/control × 100)",133%
